# Tests used:
# Assay type in all cases: in vivo
# [1] = tested on: Ipomea hederaceae (IPOHE); experiment: Pre-emergence biological efficacy, glasshouse pot test; conditions: Ipomoea hederacea, 312 h; pre-emergence, rate 1,000 g/ha, evaluated after 13 days (100=total damage to plant; 0=no damage); read-out: Percentage damage caused to weed species, IPOHE
# Outline: (§1)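 Compound was applied as a spray one day after sowing, at a final dose of 1000 or 250 g/ha. Plants grew under 14 h light, 24/16 °C and 65% humidity, and injury was assessed on day 13 on a 0–100 scale.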
# [2] = tested on: Setaria faberi (SETFA); experiment: as above; conditions: 312 h, pre-emergence, rate 1,000 g/ha, evaluated after 13 days (100=total damage to plant; 0=no damage), read-out: Percentage damage caused to weed species, SETFA
# Outline: as §1
# [3] = tested on: Amaranthus retoflexus (AMARE); experiment: as above; conditions: Amaranthus retroflexus, 312 h; pre-emergence, rate 1,000 g/ha, evaluated after 13 days (100=total damage to plant; 0=no damage); read-out: Percentage damage caused to weed species, AMARE
# Outline: as §1
# [4] = tested on: Solanum nigrum (SOLNI); experiment: as above; conditions: 312 h, pre-emergence, rate 1,000 g/ha, evaluated after 13 days (100=total damage to plant; 0=no damage), read-out: Percentage damage caused to weed species, SOLNI
# Outline: as §1
# [5] = tested on: Echinochloa crus-galli (ECHCG); experiment: as above; conditions: 312 h, pre-emergence, rate 1,000 g/ha, evaluated after 13 days (100=total damage to plant; 0=no damage), read-out: Percentage damage caused to weed species, ECHCG
# Outline: as §1
# [6] = tested on: Alopecurus myosuroides (ALOMY); experiment: as above; conditions: 312 h, pre-emergence, rate 1,000 g/ha, evaluated after 13 days (100=total damage to plant; 0=no damage), read-out: Percentage damage caused to weed species, ALOMY
# Outline: as §1
# [7] = tested on: Ipomea hederaceae (IPOHE); experiment: Post-emergence biological efficacy, glasshouse pot test; conditions: Ipomoea hederacea, 312 h; Rate 1,000 g/ha; post-emergence spray; evaluated after 13 days (100=total damage to plant; 0=no damage to plant); read-out: Percentage damage caused to weed species, post-emergence, IPOHE
# Outline: (§2)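 Plants were sown in standard soil and grown 8 days in a glasshouse (24/16° C. day/night, 14 hours light, 65% humidity), then sprayed post-emergence at 1000 or 250 g/ha from acetone/water (50:50) with 0.5% Tween 20. Damage was scored visually after 13 days (0 = none, 100 = total).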
# [8] = tested on: Setaria faberi (SETFA); experiment: as above; conditions: 312 h, Rate 1,000 g/ha, post-emergence spray, evaluated after 13 days (100=total damage to plant; 0=no damage to plant), read-out: Percentage damage caused to weed species, post-emergence, SETFA
# Outline: as §2
# [9] = tested on: Amaranthus retoflexus (AMARE); experiment: as above; conditions: Amaranthus retroflexus, 312 h; Rate 1,000 g/ha; post-emergence spray; evaluated after 13 days (100=total damage to plant; 0=no damage to plant); read-out: Percentage damage caused to weed species, post-emergence, AMARE
# Outline: as §2
# [10] = tested on: Solanum nigrum (SOLNI); experiment: as above; conditions: 312 h, Rate 1,000 g/ha, post-emergence spray, evaluated after 13 days (100=total damage to plant; 0=no damage to plant), read-out: Percentage damage caused to weed species, post-emergence, SOLNI
# Outline: as §2
# [11] = tested on: Echinochloa crus-galli (ECHCG); experiment: as above; conditions: 312 h, Rate 1,000 g/ha, post-emergence spray, evaluated after 13 days (100=total damage to plant; 0=no damage to plant), read-out: Percentage damage caused to weed species, post-emergence, ECHCG
# Outline: as §2
# [12] = tested on: Alopecurus myosuroides (ALOMY); experiment: as above; conditions: 312 h, Rate 1,000 g/ha, post-emergence spray, evaluated after 13 days (100=total damage to plant; 0=no damage to plant), read-out: Percentage damage caused to weed species, post-emergence, ALOMY
# Outline: as §2
Compound,pest or weed control at 1000 g/ha [1] [%],pest or weed control at 1000 g/ha [2] [%],pest or weed control at 1000 g/ha [3] [%],pest or weed control at 1000 g/ha [4] [%],pest or weed control at 1000 g/ha [5] [%],pest or weed control at 1000 g/ha [6] [%],pest or weed control at 1000 g/ha [7] [%],pest or weed control at 1000 g/ha [8] [%],pest or weed control at 1000 g/ha [9] [%],pest or weed control at 1000 g/ha [10] [%],pest or weed control at 1000 g/ha [11] [%],pest or weed control at 1000 g/ha [12] [%]
"COC(=O)c1nc(Cl)nc(NCC2CC2)c1Cl [Compound 207-31, 4-Cyclopropylmethyl-amino-2,5-dichloro-6-methoxycarbonyl-pyrimidine]",0,0,20,10,0,0,10,40,50,60,0,10
"COC(=O)c1nc(Cl)nc(NCc2ccccc2)c1Cl [Compound 207-35, 2,5-Dichloro-6-methoxycarbonyl-4-phenylmethylamino-pyrimidine]",10,0,30,0,10,10,10,30,50,60,20,30
"COC(=O)c1nc(Cl)nc(NCc2ccc(C)o2)c1Cl [Compound 207-50, 2,5-Dichloro-6-methoxycarbonyl-4-(5-methylfuran-2-ylmethylamino)-pyrimidine]",40,0,60,80,0,0,70,0,40,80,0,0
"COC(=O)c1nc(-c2ccc(Cl)cc2C)nc(NCc2ccco2)c1Cl [Compound 213-48, 5-Chloro-2-(4-chloro-2-methylphenyl)-4-(furan-2-yl-methyl-amino)-6-methoxy-carbonylpyrimidine]",0,10,70,0,0,10,0,10,100,10,0,0
"COC(=O)c1nc(-c2ccc(Cl)cc2OC)nc(NCc2ccco2)c1Cl [Compound 214-48, 5-Chloro-2-(4-chloro-2-methoxyphenyl)-4-(furan-2-yl-methyl-amino)-6-methoxy-carbonylpyrimidine]",0,10,100,20,0,20,30,10,100,70,0,30
"COC(=O)c1nc(-c2ccc(Cl)c(C)c2)nc(NCc2ccco2)c1Cl [Compound 216-48, 5-Chloro-2-(4-chloro-3-methylphenyl)-4-(furan-2-ylmethyl-amino)-6-methoxy-carbonylpyrimidine]",0,30,30,30,30,0,30,10,100,60,30,10
"COC(=O)c1nc(-c2ccc(Cl)c(C(F)(F)F)c2)nc(NCc2ccco2)c1Cl [Compound 217-48, 5-Chloro-2-(4-chloro-3-trifluoromethyl-phenyl)-4-(furan-2-ylmethylamino)-6-methoxycarbonyl-pyrimidine]",0,20,20,50,0,20,30,20,80,70,0,10
"COC(=O)c1nc(-c2ccc(Cl)cc2F)nc(NCc2ccco2)c1Cl [Compound 218-48, 5-Chloro-2-(4-chloro-2-fluorophenyl)-4-(furan-2-yl-methyl-amino)-6-methoxy-carbonylpyrimidine]",50,70,100,90,50,70,90,80,100,90,60,60
"COC(=O)c1nc(-c2ccc(Cl)c([N+](=O)[O-])c2)nc(NCc2ccco2)c1Cl [Compound 219-48, 5-Chloro-2-(4-chloro-3-nitrophenyl)-4-(furan-2-yl-methyl-amino)-6-methoxycarbonyl-pyrimidine]",0,0,20,0,0,0,0,20,20,30,0,0
"COC(=O)c1nc(-c2ccc(Cl)cc2C(F)(F)F)nc(NCc2ccco2)c1Cl [Compound 220-48, 5-Chloro-2-(4-chloro-2-trifluoromethyl-phenyl)-4-(furan-2-ylmethylamino)-6-methoxycarbonyl-pyrimidine]",0,0,20,0,0,0,10,0,40,20,0,20
"COC(=O)c1nc(-c2ccc(Cl)c(C#N)c2)nc(NCc2ccco2)c1Cl [Compound 221-48, 5-Chloro-2-(4-chloro-3-cyanophenyl)-4-(furan-2-yl-methyl-amino)-6-methoxy-carbonylpyrimidine]",0,0,60,0,0,0,40,30,80,80,30,10

# Source: patent US20110086759A1, “CHEMICAL COMPOUNDS” (SYNGENTA CROP PROTECTION, INC., priority 2007, published 2011)
